Test results: US20260363244A1, “HERBICIDAL COMPOSITIONS COMPRISING URACILS” (BASF SE, priority 2022, published 2026)
Like-named read-outs stand apart in the source and are kept apart here.

How the values were obtained:
Assay type in all cases: in vivo
Lolium multiflorum = experiment: greenhouse post-emergence herbicidal activity, LOLMU; conditions: Lolium multiflorum, post-emergence, read-out: % activity (solo application); for activity at […]: 1.6 gai/ha
Method: (§1) The following examples serve to illustrate the invention.
(§2) The culture containers used were plastic pots containing loamy sand with approximately 3.0% of humus as substrate. The seeds of the test plants were sown separately for each species.
(§3) For the post-emergence treatment, the test plants were grown to a plant height of from 3 to 15 cm, depending on the plant habit, and only then treated with the active compounds which had been suspended or emulsified in water. To this end, the test plants were either sown directly, and grown in the same containers, or they were first grown separately as seedlings and transplanted into the test containers a few days prior to treatment.
(§4) Depending on the species, the plants were kept at 10-25 °C and 20-35 °C, respectively. The test period extended over 2 to 4 weeks. During this time, the plants were tended and their response to the individual treatments was evaluated.
(§5) Evaluation was carried out using a scale from 0 to 100. 100 means no emergence of the plants, or complete destruction of at least the above-ground parts, and 0 means no damage or normal course of growth. A good herbicidal activity is given at values of at least 70, and very good herbicidal activity is given at values of at least 85.
(§6) The respective stated components A and B, and if appropriate, C were formulated as a 5% by weight strength emulsion concentrate and, with addition of the amount of solvent system, introduced into the spray liquor used for applying the active compound. In the examples, the solvent used was water.
(§7) In the examples below, using the method of S. R. Colby (1967) “Calculating synergistic and antagonistic responses of herbicide combinations”, Weeds 15, p. 22ff., the value E, which is expected if the activity of the individual active compounds is only additive, was calculated.
(§8) E=X+Y−(X·Y/100) • where • X=percent activity using active compound A at an application rate a; • Y=percent activity using active compound B at an application rate b; • E=expected activity (in %) by A+B at application rates a+b.
(§9) The plants used in the greenhouse experiments were of the following species
(§10) In this context, a.i. means active ingredient, based on 100% active ingredient.
(§11) As indicated the application was post emergent (POST) at the respective growth stage (GS) of the weed.
(§12) Assessment was at the indicated days after treatment (DAT).

Amaranthus tamariscinus = experiment: greenhouse post-emergence herbicidal activity, AMATA; conditions: read-out: % activity (solo application); for activity at 0.5 g/ha: 0.5 gai/ha; for activity at 0.2 g/ha: 0.2 gai/ha
Method: as §1, §2, §3, §4, §5, §6, §7, §8, §9, §10, §11, §12

Brachiaria decumbens = experiment: greenhouse post-emergence herbicidal activity, BRADC; conditions: Urochloa decumbens, post-emergence, 1.6 gai/ha, read-out: % activity (solo application)
Method: as §1, §2, §3, §4, §5, §6, §7, §8, §9, §10, §11, §12

Sorghum halepense = experiment: greenhouse post-emergence herbicidal activity, SORHA; conditions: Sorghum halepense, post-emergence, 480 h, GS 11-33, 20 DAT, read-out: % activity (solo application)
Method: as §1, §2, §3, §4, §5, §6, §7, §8, §9, §10, §11, §12

Abutilon theophrasti = experiment: greenhouse post-emergence herbicidal activity, ABUTH; conditions: read-out: % activity (solo application); for activity at 0.5 g/ha: 0.5 gai/ha; for activity at 0.4 g/ha: 0.4 gai/ha; for activity at 0.8 g/ha: 0.8 gai/ha
Method: as §1, §2, §3, §4, §5, §6, §7, §8, §9, §10, §11, §12

Setaria faberi = experiment: greenhouse post-emergence herbicidal activity, SETFA; conditions: for % activity (solo application) / activity at 0.5 g/ha: 0.5 gai/ha; for activity at […]: 0.25 gai/ha
Method: as §1, §2, §3, §4, §5, §6, §7, §8, §9, §10, §11, §12

Kochia scoparia = experiment: greenhouse post-emergence herbicidal activity, KCHSC; conditions: Bassia scoparia, post-emergence, read-out: % activity (solo application); for activity at 0.4 g/ha: 0.4 gai/ha; for activity at 0.8 g/ha: 0.8 gai/ha
Method: as §1, §2, §3, §4, §5, §6, §7, §8, §9, §10, §11, §12

Eleusine indica = experiment: greenhouse post-emergence herbicidal activity, ELEIN; conditions: read-out: % activity (solo application); for activity at […]: 1.6 gai/ha
Method: as §1, §2, §3, §4, §5, §6, §7, §8, §9, §10, §11, §12

Setaria viridis = experiment: greenhouse post-emergence herbicidal activity, SETVI; conditions: Setaria viridis, post-emergence, read-out: % activity (solo application); for activity at 0.5 g/ha: 0.5 gai/ha; for activity at 0.2 g/ha: 0.2 gai/ha; for activity at 0.4 g/ha: 0.4 gai/ha
Method: as §1, §2, §3, §4, §5, §6, §7, §8, §9, §10, §11, §12

Echinocloa crus-galli = experiment: greenhouse post-emergence herbicidal activity, ECHCG; conditions: Echinochloa crus-galli, post-emergence, read-out: % activity (solo application)
Method: as §1, §2, §3, §4, §5, §6, §7, §8, §9, §10, §11, §12

Digitaria sanguinales = experiment: greenhouse post-emergence herbicidal activity, DIGSA; conditions: Digitaria, post-emergence, read-out: % activity (solo application)
Method: as §1, §2, §3, §4, §5, §6, §7, §8, §9, §10, §11, §12

Avena fatua = experiment: greenhouse post-emergence herbicidal activity, AVEFA; conditions: read-out: % activity (solo application); for activity at 0.8 g/ha: 0.8 gai/ha; for activity at 0.5 g/ha: 0.5 gai/ha
Method: as §1, §2, §3, §4, §5, §6, §7, §8, §9, §10, §11, §12

Commenline benghalensis = experiment: greenhouse post-emergence herbicidal activity, COMBE; conditions: read-out: % activity (solo application)
Method: as §1, §2, §3, §4, §5, §6, §7, §8, §9, §10, §11, §12

[1] = 480 h, GS 11-33, 20 DAT, 0.2 gai/ha
[2] = 480 h, GS 11-33, 20 DAT, 1.6 gai/ha
[3] = 480 h, GS 12-16, 20 DAT, 0.25 gai/ha
[4] = 168 h, GS 11-33, 7 DAT, 0.2 gai/ha
[5] = 168 h, GS 11-33, 7 DAT, 1.6 gai/ha
[6] = 168 h, GS 12-16, 7 DAT, 0.25 gai/ha
[7] = Setaria faberi, post-emergence, 144 h, GS 12-16, 6 DAT, read-out: % activity (solo application)
[8] = Setaria faberi, post-emergence, 480 h, GS 12-16, 20 DAT, read-out: % activity (solo application)
[9] = 480 h, GS 12-16, 20 DAT, 0.5 gai/ha
[10] = 144 h, GS 12-16, 6 DAT, 0.25 gai/ha
[11] = 144 h, GS 12-16, 6 DAT, 0.5 gai/ha

## CCOC(=O)COc1ccccc1Oc1nc(-n2c(=O)cc(C(F)(F)F)n(C)c2=O)c(F)cc1Cl [(I.3)]
Lolium multiflorum; 168 h, GS 11-33, 7 DAT
  activity at […]: 30%
Lolium multiflorum; [1]
  activity at 0.2 g/ha: 5%
Lolium multiflorum; 480 h, GS 11-33, 20 DAT, 0.8 gai/ha
  activity at 0.8 g/ha: 10%
Lolium multiflorum; 480 h, GS 11-33, 20 DAT
  activity at […]: 10%
Amaranthus tamariscinus; 144 h, GS 12-16, 6 DAT
  activity at 0.5 g/ha: 90%
Amaranthus tamariscinus; 168 h, GS 11-33, 7 DAT
  activity at 0.2 g/ha: 70%
Amaranthus tamariscinus; 480 h, GS 11-33, 20 DAT
  activity at 0.2 g/ha: 40%
Amaranthus tamariscinus; [2]
  activity at […]: 90%
Amaranthus tamariscinus; [3]
  activity at […]: 70%
Amaranthus tamariscinus; 480 h, GS 12-16, 20 DAT
  activity at 0.5 g/ha: 85%
Brachiaria decumbens; 192 h, GS 11-33, 8 DAT
  activity at […]: 50%
Brachiaria decumbens; 480 h, GS 11-33, 20 DAT
  activity at […]: 40%
Sorghum halepense; 0.2 gai/ha
  activity at 0.2 g/ha: 10%
Sorghum halepense; 0.4 gai/ha
  activity at 0.4 g/ha: 20%
Sorghum halepense; 0.8 gai/ha
  activity at 0.8 g/ha: 30%
Sorghum halepense; 1.6 gai/ha
  activity at […]: 30%
Abutilon theophrasti; 144 h, GS 12-16, 6 DAT
  activity at 0.5 g/ha: 95%
Abutilon theophrasti; [4]
  activity at 0.2 g/ha: 80%
Abutilon theophrasti; 168 h, GS 11-33, 7 DAT
  activity at 0.4 g/ha: 85%
  activity at 0.8 g/ha: 85%
Abutilon theophrasti; [5]
  activity at […]: 90%
Abutilon theophrasti; [6]
  activity at […]: 85%
Abutilon theophrasti; 168 h, GS 12-16, 7 DAT
  activity at 0.5 g/ha: 90%
Abutilon theophrasti; 480 h, GS 11-33, 20 DAT
  activity at 0.4 g/ha: 80%
  activity at 0.8 g/ha: 80%
Abutilon theophrasti; [2]
  activity at […]: 90%
Abutilon theophrasti; 504 h, GS 12-16, 21 DAT, 0.25 gai/ha
  activity at […]: 85%
Setaria faberi; GS 12-16, 6 DAT
  % activity (solo application): 60%
Setaria faberi; GS 12-16, 20 DAT
  % activity (solo application): 60%
Setaria faberi; [7]
  activity at […]: 55%
  activity at 0.5 g/ha: 65%
Setaria faberi; Setaria faberi, post-emergence, 168 h, GS 12-16, 7 DAT, read-out: % activity (solo application)
  activity at 0.5 g/ha: 75%
Setaria faberi; Setaria faberi, post-emergence, 480 h, GS 11-33, 20 DAT, 0.2 gai/ha, read-out: % activity (solo application)
  activity at 0.2 g/ha: 15%
Setaria faberi; Setaria faberi, post-emergence, 480 h, GS 11-33, 20 DAT, 0.4 gai/ha, read-out: % activity (solo application)
  activity at 0.4 g/ha: 80%
Setaria faberi; [8]
  activity at […]: 55%
  activity at 0.5 g/ha: 55%
Setaria faberi; Setaria faberi, post-emergence, 504 h, GS 12-16, 21 DAT, read-out: % activity (solo application)
  activity at 0.5 g/ha: 70%
Kochia scoparia; 168 h, GS 11-33, 7 DAT
  activity at 0.4 g/ha: 60%
  activity at 0.8 g/ha: 75%
Kochia scoparia; [1]
  activity at 0.2 g/ha: 15%
Kochia scoparia; 480 h, GS 11-33, 20 DAT
  activity at 0.4 g/ha: 30%
  activity at 0.8 g/ha: 55%
Kochia scoparia; [2]
  activity at […]: 75%
Kochia scoparia; [3]
  activity at […]: 40%
Eleusine indica; 168 h, GS 11-33, 7 DAT
  activity at […]: 95%
Eleusine indica; [1]
  activity at 0.2 g/ha: 20%
Eleusine indica; 480 h, GS 11-33, 20 DAT
  activity at […]: 90%
Eleusine indica; [9]
  activity at 0.5 g/ha: 35%
Setaria viridis; [10]
  activity at […]: 35%
Setaria viridis; 144 h, GS 12-16, 6 DAT
  activity at 0.5 g/ha: 60%
Setaria viridis; 192 h, GS 11-33, 8 DAT
  activity at 0.2 g/ha: 20%
  activity at 0.4 g/ha: 25%
Setaria viridis; 192 h, GS 11-33, 8 DAT, 1.6 gai/ha
  activity at […]: 95%
Setaria viridis; 480 h, GS 11-33, 20 DAT
  activity at 0.2 g/ha: 5%
  activity at 0.4 g/ha: 10%
Setaria viridis; [2]
  activity at […]: 90%
Setaria viridis; [3]
  activity at […]: 30%
Setaria viridis; 480 h, GS 12-16, 20 DAT
  activity at 0.5 g/ha: 85%
Echinocloa crus-galli; [10]
  activity at […]: 40%
Echinocloa crus-galli; [11]
  activity at 0.5 g/ha: 55%
Echinocloa crus-galli; [5]
  activity at […]: 60%
Echinocloa crus-galli; [2]
  activity at […]: 60%
Digitaria sanguinales; 192 h, GS 11-33, 8 DAT, 0.4 gai/ha
  activity at 0.4 g/ha: 30%
Digitaria sanguinales; [1]
  activity at 0.2 g/ha: 10%
Digitaria sanguinales; [9]
  activity at 0.5 g/ha: 35%
Avena fatua; [10]
  activity at […]: 35%
Avena fatua; 168 h, GS 11-33, 7 DAT
  activity at 0.8 g/ha: 25%
Avena fatua; [5]
  activity at […]: 40%
Avena fatua; [6]
  activity at […]: 35%
Avena fatua; 168 h, GS 12-16, 7 DAT
  activity at 0.5 g/ha: 40%
Avena fatua; [1]
  activity at 0.2 g/ha: 10%
Avena fatua; 480 h, GS 11-33, 20 DAT
  activity at 0.8 g/ha: 15%
Avena fatua; [2]
  activity at […]: 30%
Avena fatua; [3]
  activity at […]: 10%
Avena fatua; 480 h, GS 12-16, 20 DAT
  activity at 0.5 g/ha: 25%
Commenline benghalensis; [10]
  activity at […]: 40%
Commenline benghalensis; [11]
  activity at 0.5 g/ha: 90%
Commenline benghalensis; [4]
  activity at 0.2 g/ha: 20%
Commenline benghalensis; [2]
  activity at […]: 95%
Commenline benghalensis; [3]
  activity at […]: 60%
